From ChEMBL document CHEMBL1129914, “Synthesis and inhibitory effect of a sialyl lewis X-acrylamide homopolymer at preventing cell adhesion” (Bioorg Med Chem Lett, 1997)

Legend:
[1] = tested on: Mus musculus; assay: Tested in vivo for the inhibition of LTA -induced neutrophil accumulation into pleural cavity of mice at a dose of 30 mg/kg; assay type: functional
[2] = molecular target: T1, E-selectin (Homo sapiens, UniProt P16581); assay: Tested in vitro to inhibit cell adhesion of HL-60 cells to recombinant human soluble Selectin E; assay type: cell-based
T1 sequence (P16581 whole entry): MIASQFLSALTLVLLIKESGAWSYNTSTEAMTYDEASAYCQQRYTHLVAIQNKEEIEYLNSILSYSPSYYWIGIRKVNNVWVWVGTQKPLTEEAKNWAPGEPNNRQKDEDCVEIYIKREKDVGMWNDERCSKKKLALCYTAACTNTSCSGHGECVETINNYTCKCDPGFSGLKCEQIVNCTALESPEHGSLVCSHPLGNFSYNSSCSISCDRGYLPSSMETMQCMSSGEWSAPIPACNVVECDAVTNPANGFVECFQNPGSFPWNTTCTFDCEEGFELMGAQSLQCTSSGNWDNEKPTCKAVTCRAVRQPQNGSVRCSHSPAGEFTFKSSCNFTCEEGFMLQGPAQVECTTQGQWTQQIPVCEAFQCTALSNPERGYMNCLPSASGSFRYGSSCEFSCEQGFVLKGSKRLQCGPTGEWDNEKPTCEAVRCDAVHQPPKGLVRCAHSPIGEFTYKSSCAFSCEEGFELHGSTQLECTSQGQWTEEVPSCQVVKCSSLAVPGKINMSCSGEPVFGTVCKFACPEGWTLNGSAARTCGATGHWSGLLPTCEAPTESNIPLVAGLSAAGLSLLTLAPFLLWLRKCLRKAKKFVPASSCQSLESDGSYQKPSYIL

Row | Compound | inhibition in vivo at 30 mg/kg [1] [%] | IC50 [2] [µg/mL]
1 | CCO[C@@H]1O[C@@H](CO)[C@@H](O[C@@H]2O[C@@H](CO)[C@H](O)[C@H](O[C@]3(C(=O)O)C[C@@H](O)[C@@H](NC(C)=O)[C@H]([C@H](O)[C@H](O)CO)O3)[C@@H]2O)[C@H](O[C@@H]2O[C@@H](C)[C@@H](O)[C@H](O)[C@@H]2O)[C@@H]1NC(C)=O | 38 | 1500
2 | C=CC(=O)NCCCCCCO[C@@H]1O[C@@H](CO)[C@@H](O[C@@H]2O[C@@H](CO)[C@H](O)[C@H](O[C@]3(C(=O)[O-])C[C@@H](O)[C@@H](NC(C)=O)[C@H]([C@H](O)[C@H](O)CO)O3)[C@@H]2O)[C@H](O[C@@H]2O[C@@H](C)[C@@H](O)[C@H](O)[C@@H]2O)[C@@H]1NC(=O)c1ccc2ccccc2c1.[Na+] | 35 | 100
